In PubChem BioAssay (NCI):
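These data come from cells grown in 96-well plates and exposed to compound for 48 hours at five concentrations. GI50 = concentration required for 50% inhibition of growth. TGI denotes the concentration required for complete inhibition of growth.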

Columns and labels:
Assay in all cases: NCI anticancer screen, dose series, 48 h
[1] = tested on: 786-0 renal
[2] = tested on: A498 renal
[3] = tested on: A549 NSCLC
[4] = tested on: ACHN renal
[5] = tested on: BT-549 breast
[6] = tested on: CAKI-1 renal
[7] = tested on: CCRF-CEM leukemia
[8] = tested on: COLO 205 colon
[9] = tested on: DU-145 prostate
[10] = tested on: EKVX NSCLC
[11] = tested on: HCC-2998 colon
[12] = tested on: HCT-15 colon
[13] = tested on: HL-60(TB) leukemia
[14] = tested on: HOP-62 NSCLC
[15] = tested on: HOP-92 NSCLC
[16] = tested on: HS 578T breast
[17] = tested on: HT29 colon
[18] = tested on: IGROV1 ovarian
[19] = tested on: K-562 leukemia
[20] = tested on: KM12 colon
[21] = tested on: LOX IMVI melanoma
[22] = tested on: M14 melanoma
[23] = tested on: MALME-3M melanoma
[24] = tested on: MCF7 breast
[25] = tested on: MDA-MB-231 breast
[26] = tested on: MDA-MB-435
[27] = tested on: MOLT-4 leukemia
[28] = tested on: NCI-H226 lung
[29] = tested on: NCI-H23 lung
[30] = tested on: NCI-H522 lung
[31] = tested on: NCI/ADR-RES ovarian
[32] = tested on: OVCAR-3 ovarian
[33] = tested on: OVCAR-4 ovarian
[34] = tested on: OVCAR-5 ovarian
[35] = tested on: OVCAR-8 ovarian
[36] = tested on: PC-3 prostate
[37] = tested on: RPMI-8226 leukemia
[38] = tested on: RXF 393 renal
[39] = tested on: SF-268 CNS
[40] = tested on: SF-295 CNS
[41] = tested on: SF-539 CNS
[42] = tested on: SK-MEL-2 melanoma
[43] = tested on: SK-MEL-5 melanoma
[44] = tested on: SK-OV-3 ovarian
[45] = tested on: SN12C renal
[46] = tested on: SNB-19 CNS
[47] = tested on: SNB-75 CNS
[48] = tested on: SR leukemia
[49] = tested on: SW-620 colon
[50] = tested on: T-47D breast
[51] = tested on: TK-10 renal
[52] = tested on: U251 CNS
[53] = tested on: UACC-257 melanoma
[54] = tested on: UACC-62 melanoma
[55] = tested on: UO-31 renal
[56] = tested on: HCT-116 colon
[57] = tested on: NCI-H460 lung
[58] = tested on: SK-MEL-28 melanoma

COc1ccc(-n2c(N)c(C#N)c(C#N)c2-c2cccc([N+](=O)[O-])c2)cc1
TGI [1]: > 100 µM
TGI [2]: > 100 µM
TGI [3]: 68.7 µM
TGI [4]: > 100 µM
TGI [5]: > 100 µM
TGI [6]: > 100 µM
TGI [7]: > 100 µM
TGI [8]: > 100 µM
TGI [9]: > 100 µM
TGI [10]: > 100 µM
TGI [11]: > 100 µM
TGI [12]: > 100 µM
TGI [13]: > 100 µM
TGI [14]: > 100 µM
TGI [15]: > 100 µM
TGI [16]: > 100 µM
TGI [17]: > 100 µM
TGI [18]: > 100 µM
TGI [19]: > 100 µM
TGI [20]: > 100 µM
TGI [21]: > 100 µM
TGI [22]: > 100 µM
TGI [23]: > 100 µM
TGI [24]: > 100 µM
TGI [25]: > 100 µM
TGI [26]: > 100 µM
TGI [27]: 44.8 µM
TGI [28]: > 100 µM
TGI [29]: > 100 µM
TGI [30]: > 100 µM
TGI [31]: > 100 µM
TGI [32]: > 100 µM
TGI [33]: > 100 µM
TGI [34]: > 100 µM
TGI [35]: > 100 µM
TGI [36]: > 100 µM
TGI [37]: > 100 µM
TGI [38]: 65.1 µM
TGI [39]: > 100 µM
TGI [40]: > 100 µM
TGI [41]: > 100 µM
TGI [42]: 8.68 µM
TGI [43]: > 100 µM
TGI [44]: > 100 µM
TGI [45]: > 100 µM
TGI [46]: > 100 µM
TGI [47]: > 100 µM
TGI [48]: > 100 µM
TGI [49]: > 100 µM
TGI [50]: > 100 µM
TGI [51]: > 100 µM
TGI [52]: > 100 µM
TGI [53]: > 100 µM
TGI [54]: > 100 µM
TGI [55]: > 100 µM

CS(=O)(=O)c1ccc(Oc2cc(F)cc(C#N)c2)c2c1[C@H](O)[C@H](F)[C@H]2F
GI50 [1]: > 100 µM
TGI [1]: > 100 µM
GI50 [2]: > 100 µM
TGI [2]: > 100 µM
GI50 [3]: > 100 µM
TGI [3]: > 100 µM
GI50 [4]: > 100 µM
TGI [4]: > 100 µM
GI50 [5]: > 100 µM
TGI [5]: > 100 µM
GI50 [6]: > 100 µM
TGI [6]: > 100 µM
GI50 [7]: > 100 µM
TGI [7]: > 100 µM
GI50 [8]: > 100 µM
TGI [8]: > 100 µM
GI50 [9]: > 100 µM
TGI [9]: > 100 µM
GI50 [10]: > 100 µM
TGI [10]: > 100 µM
GI50 [11]: > 100 µM
TGI [11]: > 100 µM
GI50 [56]: > 100 µM
TGI [56]: > 100 µM
GI50 [12]: > 100 µM
TGI [12]: > 100 µM
GI50 [13]: > 100 µM
TGI [13]: > 100 µM
GI50 [14]: > 100 µM
TGI [14]: > 100 µM
GI50 [15]: > 100 µM
TGI [15]: > 100 µM
GI50 [16]: > 100 µM
TGI [16]: > 100 µM
GI50 [17]: > 100 µM
TGI [17]: > 100 µM
GI50 [18]: > 100 µM
TGI [18]: > 100 µM
GI50 [19]: > 100 µM
TGI [19]: > 100 µM
GI50 [20]: > 100 µM
TGI [20]: > 100 µM
GI50 [21]: > 100 µM
TGI [21]: > 100 µM
GI50 [23]: > 100 µM
TGI [23]: > 100 µM
GI50 [24]: > 100 µM
TGI [24]: > 100 µM
GI50 [25]: > 100 µM
TGI [25]: > 100 µM
GI50 [26]: > 100 µM
TGI [26]: > 100 µM
GI50 [27]: > 100 µM
TGI [27]: > 100 µM
GI50 [28]: > 100 µM
TGI [28]: > 100 µM
GI50 [29]: > 100 µM
TGI [29]: > 100 µM
GI50 [57]: > 100 µM
TGI [57]: > 100 µM
GI50 [30]: > 100 µM
TGI [30]: > 100 µM
GI50 [31]: > 100 µM
TGI [31]: > 100 µM
GI50 [32]: > 100 µM
TGI [32]: > 100 µM
GI50 [33]: > 100 µM
TGI [33]: > 100 µM
GI50 [34]: > 100 µM
TGI [34]: > 100 µM
GI50 [35]: > 100 µM
TGI [35]: > 100 µM
GI50 [36]: > 100 µM
TGI [36]: > 100 µM
GI50 [37]: > 100 µM
TGI [37]: > 100 µM
GI50 [38]: 2.53 µM
TGI [38]: > 100 µM
GI50 [39]: > 100 µM
TGI [39]: > 100 µM
GI50 [40]: > 100 µM
TGI [40]: > 100 µM
GI50 [41]: > 100 µM
TGI [41]: > 100 µM
GI50 [42]: > 100 µM
TGI [42]: > 100 µM
GI50 [58]: > 100 µM
TGI [58]: > 100 µM
GI50 [43]: > 100 µM
TGI [43]: > 100 µM
GI50 [44]: > 100 µM
TGI [44]: > 100 µM
GI50 [45]: > 100 µM
TGI [45]: > 100 µM
GI50 [46]: > 100 µM
TGI [46]: > 100 µM
GI50 [47]: > 100 µM
TGI [47]: > 100 µM
GI50 [48]: > 100 µM
TGI [48]: > 100 µM
GI50 [49]: > 100 µM
TGI [49]: > 100 µM
GI50 [50]: > 100 µM
TGI [50]: > 100 µM
GI50 [51]: > 100 µM
TGI [51]: > 100 µM
GI50 [52]: > 100 µM
TGI [52]: > 100 µM
GI50 [53]: > 100 µM
TGI [53]: > 100 µM
GI50 [54]: > 100 µM
TGI [54]: > 100 µM
GI50 [55]: > 100 µM
TGI [55]: > 100 µM

C/C(=N\NC(=O)c1ccc(C(C)(C)C)cc1)c1ccc(O)cc1O
GI50 [1]: 0.985 µM
TGI [1]: 13.5 µM
GI50 [2]: 1.38 µM
TGI [2]: > 100 µM
GI50 [3]: 0.751 µM
TGI [3]: > 100 µM
GI50 [4]: 0.491 µM
TGI [4]: > 100 µM
GI50 [5]: 1.83 µM
TGI [5]: > 65.8 µM
GI50 [6]: 0.392 µM
TGI [6]: 4.72 µM
GI50 [7]: 0.331 µM
TGI [7]: > 30.9 µM
GI50 [8]: 0.386 µM
TGI [8]: > 34.1 µM
GI50 [9]: 0.705 µM
TGI [9]: > 100 µM
GI50 [10]: 0.442 µM
TGI [10]: > 100 µM
GI50 [11]: 0.638 µM
TGI [11]: 61.4 µM
GI50 [56]: 0.298 µM
TGI [56]: > 100 µM
GI50 [12]: 0.396 µM
TGI [12]: > 100 µM
GI50 [13]: 1.08 µM
TGI [13]: 11.1 µM
GI50 [14]: 0.484 µM
TGI [14]: > 100 µM
GI50 [15]: 4.22 µM
TGI [15]: > 100 µM
GI50 [16]: 3.26 µM
TGI [16]: > 100 µM
GI50 [17]: 0.689 µM
TGI [17]: 14.2 µM
GI50 [18]: 0.572 µM
TGI [18]: > 100 µM
GI50 [19]: 0.568 µM
TGI [19]: > 100 µM
GI50 [20]: 0.511 µM
TGI [20]: > 100 µM
GI50 [21]: 0.318 µM
TGI [21]: 1.92 µM
GI50 [22]: 0.532 µM
TGI [22]: 7.34 µM
GI50 [23]: 1.14 µM
TGI [23]: 45.2 µM
GI50 [24]: 0.628 µM
TGI [24]: > 100 µM
GI50 [25]: 0.791 µM
TGI [25]: > 100 µM
GI50 [26]: 0.81 µM
TGI [26]: > 100 µM
GI50 [27]: 0.344 µM
TGI [27]: > 100 µM
GI50 [28]: 0.843 µM
TGI [28]: 14 µM
GI50 [29]: 1.18 µM
TGI [29]: > 100 µM
GI50 [57]: 0.347 µM
TGI [57]: 10.3 µM
GI50 [30]: 1.89 µM
TGI [30]: > 100 µM
GI50 [31]: 0.416 µM
TGI [31]: > 100 µM
GI50 [32]: 0.309 µM
TGI [32]: > 100 µM
GI50 [33]: 0.306 µM
GI50 [34]: 0.862 µM
TGI [34]: > 100 µM
GI50 [35]: 0.673 µM
TGI [35]: > 100 µM
GI50 [36]: 1.08 µM
TGI [36]: > 100 µM
GI50 [37]: 0.763 µM
TGI [37]: > 59.9 µM
GI50 [38]: 2.11 µM
TGI [38]: 10.2 µM
GI50 [39]: 0.528 µM
TGI [39]: > 100 µM
GI50 [41]: 0.648 µM
TGI [41]: > 70.4 µM
GI50 [42]: 2.38 µM
TGI [42]: > 100 µM
GI50 [58]: 1.67 µM
TGI [58]: > 100 µM
GI50 [43]: 1.47 µM
TGI [43]: 4.74 µM
GI50 [44]: 1.06 µM
TGI [44]: > 100 µM
GI50 [45]: 1.24 µM
TGI [45]: > 100 µM
GI50 [46]: 2.36 µM
TGI [46]: > 100 µM
GI50 [47]: 1.27 µM
TGI [47]: 17.9 µM
GI50 [48]: 0.379 µM
TGI [48]: > 62.2 µM
GI50 [49]: 0.602 µM
TGI [49]: > 100 µM
GI50 [50]: 1.07 µM
TGI [50]: > 100 µM
GI50 [51]: 0.886 µM
TGI [51]: > 100 µM
GI50 [52]: 0.615 µM
TGI [52]: > 100 µM
GI50 [53]: 1.51 µM
TGI [53]: > 100 µM
GI50 [54]: 0.671 µM
TGI [54]: > 100 µM
GI50 [55]: 0.377 µM
TGI [55]: > 100 µM
